{"source": "paper PMC8111499", "about": "“GW117: A novel serotonin (5‐HT2C) receptor antagonist and melatonin (MT1/MT2) receptor agonist with potential antidepressant‐like activity in rodents” (CNS Neuroscience & Therapeutics, 2021)", "key": {"[1]": {"tested_on": "CUS rats", "test": "Open field test in chronic unpredictable stress (CUS) rats", "format": "in vivo", "details": "CUS rats, 5, 10, 20, 40 mg/kg p.o., 4‐week stress, vs. CUS‐vehicle", "description": "(§1) In order to further examine the antidepressant effects of GW117, chronic unpredictable stress (CUS) model was utilized; the methods were as described before. ^29 , ^31 After 1 week of training, rats underwent sucrose training of 48 h. After training, a sucrose baseline test was performed. […] Gastric gavage was given 1 h before the stress (08:00–09:00). Except for the non‐stressed group, all rats were stimulated by a series of stressors. stress methods included the following: fast on food and water (24 h), moisture cage (150 g sawdust bedding in 200 ml water), overnight illumination, low‐intensity strobe illumination (100 flashes/min), forced swimming (5 min at 10℃), white noise (110 dB), tail pinch (1 cm from tail root, 6 min), 45℃ cage tilt, and restraint (1–2 h). Stressors need to be used continuously and randomly. Non‐stressed rats received free food and water, but were required to fast for 14 h before sucrose preference test. After 4 weeks of stress, the sucrose preference test (SPT) (on day 25), open field test (OFT) (on day 28), and novelty‐suppressed feeding (NSF) test (on day 29) were carried out.\nThe OFT device was a chamber (diameter, 122 cm; height, 45 cm) that was grouped equally into 16 sections. 24 h after the last administration, rats were put into the center of the chamber and the numbers of crossings and readings were recorded in 5 min."}, "[2]": {"target": "T1, MT2 receptor (Homo sapiens, UniProt P49286)", "T1 construct": "purchased Perkin‐Elmer ES‐621", "T1 sequence (P49286 1-362)": "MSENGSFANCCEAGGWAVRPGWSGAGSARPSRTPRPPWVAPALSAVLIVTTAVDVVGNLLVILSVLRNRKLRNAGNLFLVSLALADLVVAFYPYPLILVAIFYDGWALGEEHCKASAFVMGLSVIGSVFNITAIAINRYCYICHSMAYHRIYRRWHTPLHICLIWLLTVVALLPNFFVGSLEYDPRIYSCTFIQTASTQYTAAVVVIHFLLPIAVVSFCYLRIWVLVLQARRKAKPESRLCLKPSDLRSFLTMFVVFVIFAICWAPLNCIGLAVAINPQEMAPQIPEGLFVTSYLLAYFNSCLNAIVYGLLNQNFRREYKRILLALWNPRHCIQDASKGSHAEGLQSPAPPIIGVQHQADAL", "test": "MT2 receptor binding assay ([3H]‐melatonin competition)", "details": "mean ± SEM, three independent experiments", "description": "(§2) The stably transfected 5‐HT2C receptor HEK293 cell line was prepared using a nucleus‐cytoplasm‐membrane preparation kit (Applagin Technologies Inc.). Briefly, cells were harvested at 4°C, 110 00 × g and centrifugation for 5 min. Homogenize pellets in the assay buffer (50 mM Tris‐HCl buffer containing 120 mM NaCl and 5 mM KCl, pH 7.4) and then centrifuged twice at 4°C, 36,000 × g for 15 min. Finally, pellets were re‐suspended in assay buffer and stored it at −80°C until it is used for in vitro experiments.\n(§3) Receptor membrane protein, MT1 or MT2 (10 μl), was added to all pipes. Non‐specific binding was determined by the presence of unlabeled 10 µM melatonin and pre‐reacted for 30 min. In test tubes, 30 μl of test drugs (MT1: concentration, 10^−4–10^−10 M; MT2: concentration, 10^−4–10^−11 M) was added. Additionally, 40 μl [^3H]‐melatonin was added to all tubes. The volume in all reaction tubes was made up to 300 μl with Tris‐HCl buffer (50 mM, pH 7.4). Reactions were performed at 25°C for 1 h. The mixture was then spotted onto a type 49 glass fiber filter paper, suction filtered under vacuum, rinsed three times with 2 ml ice‐cold Tris‐HCl buffer (50 mM, pH 7.4), and dried by suction. […] Finally, 1 ml of scintillation fluid was added and then the radioactive intensity measured by liquid scintillation counting."}, "[3]": {"tested_on": "CUS rats", "test": "Sucrose preference test in CUS rats", "format": "in vivo", "details": "chronic, 5, 10, 20, and 40 mg/kg, vs. CUS‐vehicle", "description": "as §1\nThe SPT was performed as previously reported. ^32 Rats were trained to administer sucrose water solution after 48 h fasting and water deprivation. […] Sucrose and water intake were measured, and sucrose preference was calculated: SP =sucrose intake ×100%/ (sucrose intake +water intake). […]"}, "[4]": {"target": "T2, MT1 receptor (Homo sapiens, UniProt P48039)", "T2 construct": "purchased Perkin‐Elmer ES‐620", "T2 sequence (P48039 whole entry)": "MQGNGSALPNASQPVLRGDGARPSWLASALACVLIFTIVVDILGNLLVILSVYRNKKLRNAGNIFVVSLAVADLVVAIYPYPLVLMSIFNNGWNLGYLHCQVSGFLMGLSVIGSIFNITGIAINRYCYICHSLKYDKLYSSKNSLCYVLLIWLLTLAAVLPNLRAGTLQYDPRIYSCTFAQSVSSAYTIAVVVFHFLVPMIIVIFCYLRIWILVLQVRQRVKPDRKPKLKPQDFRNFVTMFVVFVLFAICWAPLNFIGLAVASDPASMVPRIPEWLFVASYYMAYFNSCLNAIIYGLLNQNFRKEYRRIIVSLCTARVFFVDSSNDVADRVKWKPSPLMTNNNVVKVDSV", "test": "MT1 receptor binding assay ([3H]‐melatonin competition)", "details": "mean ± SEM, three independent experiments", "description": "as §2, §3"}, "[5]": {"tested_on": "mice", "test": "Learned helplessness paradigm in mice", "format": "in vivo, ICR mice", "details": "sub‐chronic, fourth day after inescapable shock training, vs stress", "description": "For 4 consecutive days, mice were putted into the shuttle box device (40 × 10 × 13 cm), the device was splited into two compartments, and mice could free access. In the IS group, each mouse received 360 inescapable shocks (current intensity 0.30 mA, duration 2 s, 3‐13 s variable interval, about 1 h) over four consecutive training days. Animals in the NIS group underwent the same handling without receiving the foot shocks. 10 trials were conducted on mice to screen helpless, each of which includes conditioned stimulation period (3‐s lamp on), non‐conditioned stimulation period (3‐s lamp +shock), and interval period (without any stimulus, 25 s). […] The EF values were balanced for each group in the experiment. Using Graphic State software (Coulbourn Instruments Inc.,) recorded the number of escape failures and the latency to escape."}, "[6]": {"tested_on": "mice", "test": "Tail suspension test in mice", "format": "in vivo, ICR mice", "description": "The tail suspension test (TST) was conducted as described earlier. ^28 , ^29 Eighty naive mice were randomly divided into eight treatment groups (n = 10/group). All mice received a single dose of the drug (p.o.). After 60 min of gavage administration, mice were suspended from the top of the apparatus (25 × 25 × 35 cm) using tape about 1 cm from the tail tip. The duration of immobility was recorded in the last 4 min for a total of 6 min. When mice are passively suspended immobile, they are judged to be stationary."}}, "data": [{"compound": "[2H]C([2H])([2H])Oc1cc2c(CCNC(C)=O)cccc2cc1Cl", "note": "[GW117]", "values": [{"measurement": "number of rearings and crossings in open field", "setting": "[1]", "value": "markedly add to the number of rearings and crossings"}, {"measurement": "Ki", "setting": "[2]", "value": "0.054 ± 0.00731", "unit": "µM"}, {"measurement": "sucrose preference", "setting": "[3]", "value": "markedly increased sucrose preference"}, {"measurement": "Ki", "setting": "[4]", "value": "0.00012 ± 6e-05", "unit": "µM"}, {"measurement": "number of failures to escape", "setting": "[5]; 40 mg/kg", "value": "significantly decreased the number of failures to escape"}, {"measurement": "escape latency", "setting": "[5]; 20 and 40 mg/kg", "value": "decreased the escape latency"}, {"measurement": "immobility time in TST", "setting": "[6]; acute, p.o., 20 and 40 mg/kg, vs. vehicle", "value": "markedly reduced the immobility time"}, {"measurement": "minimal effective dose in TST", "setting": "[6]; immobility time", "value": 20, "unit": "mg/kg"}]}]}
